Measured values published in US10871487B2, “FRET-based glucose-detection molecules” (priority 2016, dated 2020).

Tests used:
[1] = target: T1, FRET-based glucose-detection molecule D274, SEQ ID No. 1, glucose-binding region derived from E. coli mg1B (galactose binding protein), residue 16 = Q (Escherichia coli, UniProt P0AEE5, DELINS298-299[…]/F39Q); experiment: FRET:F ratio at different glucose concentrations, Kd extracted from curve (D274); settings: FIG. 5B
T1 construct: red acceptor fluorophore at N-terminus; FRET sensor D274; made in E. coli, purified
From the text: (§1) Reference is also made to FIG. 2, which is a graph that illustrates, in a generalized manner, FRET behavior of molecule 20 (and of the molecules that it represents), in accordance with some applications of the invention. Three important features of molecules suitable for FRET-based glucose detection are: • (1) High contrast. That is, a large difference between the FRET:F ratio in the disassociated state and the FRET:F ratio in the associated state (referred to herein as “delta ratio” (“dR”)). […]
(§2) Reference is now made to FIG. 4, which is a set of graphs which show, for some of the molecules described hereinabove, the FRET:F ratio (y axis) at different glucose concentrations, measured at 35 degrees C.
(§3) The measurements were performed on proteins that were extracted from E. coli (in which they were produced) and purified in 50 mM Tris (pH 7.6, 1 mM CaCl_2, 100 mM NaCl_2). Measurements were performed using an Infinite (R) 200 plate reader or on a fluoroscopic microscope. FRET-based emission was measured by applying excitation at 475 nm and detecting emission at 640-800 nm. Direct fluorescence of the acceptor fluorophore was measured by applying excitation at 575 nm and detecting emission at 640-800 nm. Curves were generated from the measured points (typically 10) by a non-linear interpolation, and Kd and dR were extracted. […]

[2] = target: T2, FRET-based glucose-detection molecule D277, SEQ ID No. 2, glucose-binding region derived from E. coli mg1B (galactose binding protein), residue 16 = Q (Escherichia coli, UniProt P0AEE5, DELINS298-299[…]/F39Q); experiment: FRET:F ratio at different glucose concentrations, Kd extracted from curve (D277); settings: FIG. 5B
T2 construct: red acceptor fluorophore at N-terminus with linker; FRET sensor D277; made in E. coli, purified
From the text: as §1, §2, §3

[3] = target: T3, FRET-based glucose-detection molecule D278, SEQ ID No. 3, glucose-binding region derived from E. coli mg1B (galactose binding protein), residue 16 = Q (Escherichia coli, UniProt P0AEE5, DELINS298-299[…]/F39Q); experiment: FRET:F ratio at different glucose concentrations, Kd extracted from curve (D278); settings: FIG. 5B
T3 construct: red acceptor fluorophore at N-terminus with linker; FRET sensor D278; made in E. coli, purified
From the text: as §1, §2, §3

[4] = target: T4, FRET-based glucose-detection molecule D279, SEQ ID No. 4, glucose-binding region derived from E. coli mg1B (galactose binding protein), residue 16 = Q (Escherichia coli, UniProt P0AEE5, DELINS299-299[…]/F39Q); experiment: FRET:F ratio at different glucose concentrations, Kd extracted from curve (D279); settings: FIG. 5B
T4 construct: red acceptor fluorophore at N-terminus; FRET sensor D279; made in E. coli, purified
From the text: as §1, §2, §3

[5] = target: T5, FRET-based glucose-detection molecule D198, glucose-binding region derived from E. coli mg1B (galactose binding protein), 16 = A (Escherichia coli, UniProt P0AEE5, F39A); experiment: Kd of residue 16 variant at room temperature (D198)
T5 construct: made in E. coli, purified
From the text: (§4) Reference is also made to FIG. 2, which is a graph that illustrates, in a generalized manner, FRET behavior of molecule 20 (and of the molecules that it represents), in accordance with some applications of the invention. Three important features of molecules suitable for FRET-based glucose detection are: • (1) High contrast. That is, a large difference between the FRET:F ratio in the disassociated state and the FRET:F ratio in the associated state (referred to herein as “delta ratio” (“dR”)). In FIG. 2, this is represented as the difference between the highest FRET:F ratio and the lowest FRET:F ratio on the curve. • (2) High sensitivity at physiologically-relevant glucose concentrations when at physiologically-relevant temperatures. […]
as §3

[6] = target: T6, FRET-based glucose-detection molecule D241, glucose-binding region derived from E. coli mg1B (galactose binding protein), 16 = Q (Escherichia coli, UniProt P0AEE5, F39Q); experiment: Kd of residue 16 variant at room temperature (D241)
T6 construct: made in E. coli, purified
From the text: as §4, §3

[7] = target: T7, FRET-based glucose-detection molecule D267, glucose-binding region derived from E. coli mg1B (galactose binding protein), 16 = N (Escherichia coli, UniProt P0AEE5, F39N); experiment: Kd of residue 16 variant at room temperature (D267)
T7 construct: made in E. coli, purified
From the text: as §4, §3

[8] = target: T8, FRET-based glucose-detection molecule D263, glucose-binding region derived from E. coli mg1B (galactose binding protein), 16 = V (Escherichia coli, UniProt P0AEE5, F39V); experiment: Kd of residue 16 variant at room temperature (D263)
T8 construct: made in E. coli, purified
From the text: as §4, §3

T8 sequence (P0AEE5 24-332 F39V limits assumed): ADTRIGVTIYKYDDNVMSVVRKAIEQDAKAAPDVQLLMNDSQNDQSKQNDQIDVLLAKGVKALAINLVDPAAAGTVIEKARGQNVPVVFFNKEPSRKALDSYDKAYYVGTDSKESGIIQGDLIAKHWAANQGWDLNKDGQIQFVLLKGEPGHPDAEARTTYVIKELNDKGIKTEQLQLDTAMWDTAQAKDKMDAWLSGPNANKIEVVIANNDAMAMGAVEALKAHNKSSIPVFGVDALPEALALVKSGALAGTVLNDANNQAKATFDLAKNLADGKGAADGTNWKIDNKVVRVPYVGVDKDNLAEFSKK
T3 sequence (P0AEE5 other isoform, or with tags, fused parts or gaps with the stated changes): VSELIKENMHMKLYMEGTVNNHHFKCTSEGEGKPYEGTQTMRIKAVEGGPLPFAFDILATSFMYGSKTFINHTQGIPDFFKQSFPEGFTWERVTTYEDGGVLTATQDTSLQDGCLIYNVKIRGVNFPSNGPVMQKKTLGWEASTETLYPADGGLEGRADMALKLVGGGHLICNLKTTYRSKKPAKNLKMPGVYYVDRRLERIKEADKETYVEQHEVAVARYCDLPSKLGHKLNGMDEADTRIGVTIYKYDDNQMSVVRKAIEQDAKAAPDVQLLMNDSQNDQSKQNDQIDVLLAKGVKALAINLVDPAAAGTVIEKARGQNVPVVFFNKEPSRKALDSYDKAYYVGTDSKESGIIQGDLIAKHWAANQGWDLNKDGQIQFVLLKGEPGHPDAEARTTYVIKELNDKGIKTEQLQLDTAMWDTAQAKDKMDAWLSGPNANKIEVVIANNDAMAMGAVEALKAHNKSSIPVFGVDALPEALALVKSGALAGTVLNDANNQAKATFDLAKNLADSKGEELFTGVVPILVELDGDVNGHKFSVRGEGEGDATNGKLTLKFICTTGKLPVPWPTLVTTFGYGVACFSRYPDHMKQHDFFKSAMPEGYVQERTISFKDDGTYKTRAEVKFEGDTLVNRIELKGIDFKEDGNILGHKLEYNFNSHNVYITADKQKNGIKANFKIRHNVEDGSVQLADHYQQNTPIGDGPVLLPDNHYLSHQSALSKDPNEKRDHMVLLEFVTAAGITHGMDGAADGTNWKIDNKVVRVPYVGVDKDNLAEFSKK
T5 sequence (P0AEE5 24-332 F39A limits assumed): as the sequence (P0AEE5 24-332 F39V limits assumed) above, with V16A counted along it
T4 sequence (P0AEE5 other isoform, or with tags, fused parts or gaps with the stated changes): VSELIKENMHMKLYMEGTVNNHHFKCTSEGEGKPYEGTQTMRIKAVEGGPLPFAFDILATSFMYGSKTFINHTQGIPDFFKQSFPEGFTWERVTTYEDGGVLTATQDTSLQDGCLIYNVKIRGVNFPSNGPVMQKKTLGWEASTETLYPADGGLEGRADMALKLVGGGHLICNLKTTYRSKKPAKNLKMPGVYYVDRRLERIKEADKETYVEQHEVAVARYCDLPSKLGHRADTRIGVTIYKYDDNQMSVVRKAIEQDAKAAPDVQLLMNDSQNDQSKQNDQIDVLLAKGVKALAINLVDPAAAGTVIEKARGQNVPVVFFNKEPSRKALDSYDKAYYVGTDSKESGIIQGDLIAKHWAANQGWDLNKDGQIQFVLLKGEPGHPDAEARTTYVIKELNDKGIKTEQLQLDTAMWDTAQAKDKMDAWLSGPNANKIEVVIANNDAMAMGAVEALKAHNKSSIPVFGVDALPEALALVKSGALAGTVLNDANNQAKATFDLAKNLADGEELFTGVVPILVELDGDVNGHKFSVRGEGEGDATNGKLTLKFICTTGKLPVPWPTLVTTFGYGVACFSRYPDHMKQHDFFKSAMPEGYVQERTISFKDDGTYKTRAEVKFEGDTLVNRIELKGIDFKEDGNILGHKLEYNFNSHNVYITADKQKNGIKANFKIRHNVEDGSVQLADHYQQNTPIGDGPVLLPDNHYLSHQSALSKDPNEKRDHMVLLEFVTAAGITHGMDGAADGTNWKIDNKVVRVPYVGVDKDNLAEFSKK
T6 sequence (P0AEE5 24-332 F39Q limits assumed): as the sequence (P0AEE5 24-332 F39V limits assumed) above, with V16Q counted along it
T7 sequence (P0AEE5 24-332 F39N limits assumed): as the sequence (P0AEE5 24-332 F39V limits assumed) above, with V16N counted along it
T1 sequence (P0AEE5 other isoform, or with tags, fused parts or gaps with the stated changes): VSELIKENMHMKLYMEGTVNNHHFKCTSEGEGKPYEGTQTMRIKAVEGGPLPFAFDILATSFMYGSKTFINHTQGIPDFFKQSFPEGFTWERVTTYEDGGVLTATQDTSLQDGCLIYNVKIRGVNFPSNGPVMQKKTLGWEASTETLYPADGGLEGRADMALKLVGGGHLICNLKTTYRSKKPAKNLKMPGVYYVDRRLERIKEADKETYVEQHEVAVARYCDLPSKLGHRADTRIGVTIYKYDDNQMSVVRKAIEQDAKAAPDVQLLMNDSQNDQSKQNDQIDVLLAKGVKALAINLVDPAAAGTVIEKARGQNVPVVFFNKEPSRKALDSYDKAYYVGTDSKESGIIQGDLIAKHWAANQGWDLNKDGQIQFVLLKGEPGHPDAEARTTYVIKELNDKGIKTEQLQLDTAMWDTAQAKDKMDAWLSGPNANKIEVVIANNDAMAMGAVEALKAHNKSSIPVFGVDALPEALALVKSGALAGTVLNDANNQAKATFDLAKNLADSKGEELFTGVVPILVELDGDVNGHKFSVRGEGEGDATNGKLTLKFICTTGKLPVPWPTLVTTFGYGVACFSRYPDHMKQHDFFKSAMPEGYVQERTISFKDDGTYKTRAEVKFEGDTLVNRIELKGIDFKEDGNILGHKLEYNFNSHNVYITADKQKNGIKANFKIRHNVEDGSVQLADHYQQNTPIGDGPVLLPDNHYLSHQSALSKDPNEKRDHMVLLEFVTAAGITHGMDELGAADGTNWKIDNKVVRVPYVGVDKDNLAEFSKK
T2 sequence (P0AEE5 other isoform, or with tags, fused parts or gaps with the stated changes): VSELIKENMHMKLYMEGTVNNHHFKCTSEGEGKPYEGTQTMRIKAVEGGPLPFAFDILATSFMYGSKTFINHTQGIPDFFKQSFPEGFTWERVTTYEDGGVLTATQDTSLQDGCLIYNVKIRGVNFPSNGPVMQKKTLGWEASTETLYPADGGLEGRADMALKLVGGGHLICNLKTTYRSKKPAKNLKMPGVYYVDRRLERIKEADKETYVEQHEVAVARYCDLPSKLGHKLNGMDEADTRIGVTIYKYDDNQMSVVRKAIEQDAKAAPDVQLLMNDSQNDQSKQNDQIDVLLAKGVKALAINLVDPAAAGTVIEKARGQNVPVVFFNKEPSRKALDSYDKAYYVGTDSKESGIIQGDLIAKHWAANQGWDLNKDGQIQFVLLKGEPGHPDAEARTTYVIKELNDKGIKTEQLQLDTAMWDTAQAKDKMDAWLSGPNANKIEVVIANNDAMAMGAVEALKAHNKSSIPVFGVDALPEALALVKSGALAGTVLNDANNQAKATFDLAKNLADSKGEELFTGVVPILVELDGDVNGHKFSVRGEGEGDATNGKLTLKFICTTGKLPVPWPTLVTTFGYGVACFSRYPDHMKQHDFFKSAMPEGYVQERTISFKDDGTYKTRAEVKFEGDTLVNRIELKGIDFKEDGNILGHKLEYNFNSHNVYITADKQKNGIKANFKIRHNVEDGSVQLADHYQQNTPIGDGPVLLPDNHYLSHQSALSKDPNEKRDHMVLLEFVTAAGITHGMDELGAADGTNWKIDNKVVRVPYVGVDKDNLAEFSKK

SMILES: OC[C@H]1OC(O)[C@H](O)[C@@H](O)[C@@H]1O (some centres unmarked) [glucose]
- Kd at different temperatures [1]: Kd increased with temperature for all four molecules; the change was greatest for D279, and smallest for D274
- Kd at different temperatures [2]: Kd increased with temperature for all four molecules
- Kd at different temperatures [3]: Kd increased with temperature for all four molecules
- Kd at different temperatures [4]: Kd increased with temperature for all four molecules; the change was greatest for D279
- Kd [5]: 3.2 mM
- Kd [6]: 0.3 mM
- Kd [7]: 9.4 mM
- Kd [8]: 7.9 mM
